Results on one molecule are retold here after patent publication US20260071518A1, “SURFACTANT FOR CARBON DIOXIDE STORAGE” (TOTALENERGIES ONETECH, priority 2022, published 2026).

Data set [1] can be described thus: slim tube packed with sand, co-injection of carbon dioxide and surfactant-brine composition, apparent viscosity (Example 1). Format: physicochemical. To be noted: 0.2 wt. % in 220 g/L NaCl brine, pH=6, 25° C., 150 bar, carbon dioxide fraction 50%, versus comparative surfactant compounds. On the procedure: In this example, experiments were conducted within a slim tube packed with sand. The tube length was 25 cm, the tube diameter was 1 cm.
Various surfactant compositions were made by dissolving 0.2 wt. % of an individual surfactant compound in brine having a NaCl content of 220 g/L, buffered at pH=6 with a sodium acetate/acetic acid buffer.
Carbon dioxide and the surfactant-brine composition were co-injected into the slim tube via two separate inlets, at a temperature of 25° C. and at a pressure of 150 bar, with a total flow rate of 60 ft/day and a carbon dioxide fraction of 50%.
The pressure drop across the tube was measured and the apparent viscosity was calculated based on Darcy's law. Specifically, the apparent viscosity was obtained according to the following formula: (permeability×pressure gradient)/(volume flow/inlet area of the core (tube)).

The nature of data set [2]: carbonate core co-injection of carbon dioxide and surfactant-water composition, gas saturation and apparent viscosity (Example 4). The class given is physicochemical. Particulars: 0.2 wt. % in water, 110° C., 150 bar. How it is done:
In this example, experiments were conducted using a carbonate core. The core was 30.1 cm long, having a diameter of 3.8 cm, a porosity of 28%, permeability of 130 md.
A surfactant-water composition was prepared by dissolving 0.2 wt. % of a surfactant compound (compound E of Example 1, N^1-dodecyl-N^3,N^3-dimethylpropane-1,3-diamine) in water.
Carbon dioxide and the surfactant-water composition were co-injected into the carbonate core via two separate inlets, at a temperature of 110° C. and at a pressure of 150 bar, with a total flow rate of 4 ft/day, varying the fraction of carbon dioxide from 50% to 95%. Carbon dioxide and water alone were also co-injected into the carbonate core under the same conditions.
The gas saturation in the core was measured by obtaining a mass balance between what is injected (water+CO2−pump control) and produced water measured by burette (volume) along with a scale (mass).
The apparent viscosity was calculated based on Darcy's law.

Consider `CCCCCCCCCCCCNCCCN(C)C` [Compound E, N^1-dodecyl-N^3,N^3-dimethylpropane-1,3-diamine], for which the “rise in apparent viscosity” value in data set [1] is “quicker and higher rise in viscosity”. The “apparent viscosity of the resulting emulsion” value in data set [2] (CO2 fraction 50% to 95%, versus absence of surfactant) is listed as “higher apparent viscosity”. In addition, the “change of apparent viscosity with CO2 fraction” value in data set [2] (CO2 fraction increased from 50 to 95%) is “decreased”. Also, the “gas (CO2) saturation increase compared to absence of surfactant” value in data set [2] (at each CO2 fraction tested (50% to 95%)) was 2-4 fold.
